14 compounds from ChEMBL document CHEMBL2375302, “Synthesis, antimicrobial, antiquorum-sensing, antitumor and cytotoxic activities of new series of fused [1,3,4]thiadiazoles” (Eur J Med Chem, 2013) can be followed below.

Series [1] in a line: (§1) Toxicity against brine shrimp larvae assessed as mortality after 24 hrs by binocular microscopic analysis. In kind it is organism-based. Conditions: artemia salina, in vivo.
Series [2] concerns Artemia salina. The description is as §1. Conditions: in vivo, 24 h. In kind it is organism-based.
The nature of series [3]: Toxicity against brine shrimp larvae assessed as mortality at 10 ug/mL after 24 hrs by binocular microscopic analysis relative to control. Particulars: artemia salina, in vivo. In kind it is organism-based.
Series [4] is described as follows: Toxicity against brine shrimp larvae assessed as mortality at 100 ug/mL after 24 hrs by binocular microscopic analysis relative to control. In kind it is organism-based. Particulars: artemia salina, in vivo.
Series [5] can be described thus: Toxicity against brine shrimp larvae assessed as mortality at 500 ug/mL after 24 hrs by binocular microscopic analysis relative to control. The series is classed as organism-based. Conditions: artemia salina, in vivo.
A short description of series [6]: Toxicity against brine shrimp larvae assessed as mortality at 1000 ug/mL after 24 hrs by binocular microscopic analysis relative to control. The series is classed as organism-based. Particulars: artemia salina, in vivo.
Series [7] relates to Chromobacterium violaceum. Kind of series: Antiquorum-sensing activity against Chromobacterium violaceum ATCC 12472 after 48 hrs. In kind it is functional.
Series [8] concerns Aspergillus flavus. Kind of series: Antifungal activity against Aspergillus flavus 3372 at 5 mg/mL after 48 hrs. In kind it is functional. Conditions: Aspergillus flavus, 3372, 48 h; read-out: DIZ.
Series [9] relates to Aspergillus fumigatus. As to the kind of experiment: Antifungal activity against Aspergillus fumigatus Af293 at 5 mg/mL after 48 hrs. In kind it is functional. Particulars: Af293, 48 h, read-out: DIZ.
The subject of series [10] is Candida albicans. As to the kind of experiment: Antifungal activity against Candida albicans at 5 mg/mL after 48 hrs. In kind it is functional. Conditions: read-out: DIZ.
The test system of series [11] is Staphylococcus aureus. As to the kind of experiment: Antibacterial activity against Staphylococcus aureus at 5 mg/mL after 24 hrs. The series is classed as functional. Conditions: read-out: DIZ.
The subject of series [12] is Bacillus cereus. Kind of series: Antibacterial activity against Bacillus cereus at 5 mg/mL after 24 hrs. The series is classed as functional. Conditions: read-out: DIZ.
Series [13] deals with Escherichia coli. Kind of series: Antibacterial activity against Escherichia coli at 5 mg/mL after 24 hrs. In kind it is functional. Particulars: read-out: DIZ.

Converted amounts (≈) assume the structure as drawn. Bounds are passed on as bounds.

Consider `Cc1ccc(/N=N/c2c(N)n3nc(S(N)(=O)=O)sc3nc2=O)cc1`, for which the LC50 at 24 h in series [1] came to 392 µg/mL (≈ 1070 µM). Further, the LC90 in series [2] was found to be 706.43 µg/mL (≈ 1930 µM). Besides, in series [3], the mortality at 24 h, 10 ug/mL was determined as 90%. The mortality at 24 h, 100 ug/mL in series [4] stood at 96.6%. Also, the mortality at 24 h, 500 ug/mL in series [5] is 100%. Besides, in series [6], the mortality at 24 h, 1000 ug/mL was found to be 100%. In [7], the “diameter of the inhibition zone (DIZ)” value is on record as 12 mm. Also, the zone of inhibition at 5000 µg/mL in series [8] is 5 mm; in [9], 6 mm; in [10], 12 mm; in [11] it was 8 mm; in series [12], 3 mm; in [13], 4 mm.

For the compound `COc1ccc(/N=N/c2c(N)n3nc(S(N)(=O)=O)sc3nc2=O)cc1`, the median lethal concentration (LC50) at 24 h in series [1] was 404 µg/mL (≈ 1060 µM). Besides, the LC90 in series [2] was found to be 726.97 µg/mL (≈ 1910 µM). In series [3], the mortality at 24 h, 10 ug/mL was found to be 73.3%. Also, the mortality at 24 h, 100 ug/mL in series [4] was 86.6%. Also, in [5], the mortality at 24 h, 500 ug/mL came to 93.3%. Moreover, the mortality at 24 h, 1000 ug/mL in series [6] is 100%. In [7], the “diameter of the inhibition zone (DIZ)” value was 11 mm. Further, the zone of inhibition at 5000 µg/mL in [8] is 5 mm; in series [9], below 2 mm; in series [10], 6 mm; in series [11], 8 mm; in series [12], 3 mm; in series [13], 5 mm.

Consider `COc1ccc2c(c1)CCC1=C2N=C2SC(S(N)(=O)=O)=NN2C1c1ccc(Br)cc1` (stereo not given), for which the “diameter of the inhibition zone (DIZ)” value in series [7] is given as below 2 mm. Also, the zone of inhibition at 5000 µg/mL was below 2 mm in series [8]; 6 mm in [9]; 14 mm in [10]; below 2 mm in [11]; below 2 mm in series [12]; below 2 mm in [13].

For the compound `COc1ccc2c(c1)CCC1=C2N=C2SC(S(N)(=O)=O)=NN2C1c1ccc(Cl)cc1` (stereo not given), the LC50 at 24 h in series [1] was found to be 438 µg/mL (≈ 951 µM). Further, the LC90 in [2] was 788.78 µg/mL (≈ 1710 µM). Further, the mortality at 24 h, 10 ug/mL in [3] amounted to 50%. Moreover, the mortality at 24 h, 100 ug/mL in series [4] is 66.6%. In addition, the mortality at 24 h, 500 ug/mL in series [5] is 80%. For the same compound, the mortality at 24 h, 1000 ug/mL in series [6] was found to be 96.6%. The “diameter of the inhibition zone (DIZ)” value in series [7] is reported as below 2 mm. Moreover, the zone of inhibition at 5000 µg/mL in [8], in [9], in series [10], in series [11], in series [12] and in series [13] was below 2 mm in each case.

For `COc1ccc2c(c1)CCC1=C2N=C2SC(S(N)(=O)=O)=NN2C1c1ccc(OC)c(OC)c1` (stereo not given), the LC50 at 24 h in series [1] amounted to 455 µg/mL (≈ 936 µM). In series [2], the LC90 turned out to be 819.67 µg/mL (≈ 1680 µM). The mortality at 24 h, 10 ug/mL in series [3] was 46.6%. Moreover, in series [4], the mortality at 24 h, 100 ug/mL came to 63.3%. Moreover, in series [5], the mortality at 24 h, 500 ug/mL amounted to 76.6%. Further, the mortality at 24 h, 1000 ug/mL in series [6] turned out to be 93.3%.

As for `N=c1cc(N)n2nc(S(N)(=O)=O)sc2n1`, the “diameter of the inhibition zone (DIZ)” value in [7] was below 2 mm. The zone of inhibition at 5000 µg/mL in series [8], in series [9], in series [10], in series [11], in series [12] and in [13] was below 2 mm each time.

As to `NS(=O)(=O)C1=NN2C(=O)c3ccccc3NC(c3ccsc3)/N=C\2S1` (stereo not given), the LC50 at 24 h in series [1] worked out at 477 µg/mL (≈ 1210 µM). The LC90 in [2] turned out to be 858.77 µg/mL (≈ 2180 µM). Also, the mortality at 24 h, 10 ug/mL in series [3] amounted to 46.6%. Also, the mortality at 24 h, 100 ug/mL in series [4] amounted to 66.6%. The mortality at 24 h, 500 ug/mL in [5] is 76.6%. Also, the mortality at 24 h, 1000 ug/mL in series [6] worked out at 86.6%. The “diameter of the inhibition zone (DIZ)” value in series [7] was 6 mm. Also, the zone of inhibition at 5000 µg/mL in series [8], in series [9], in [10], in [11], in series [12] and in series [13] was below 2 mm throughout.

`NS(=O)(=O)C1=NN2CCC(=O)N=C2S1`: the LC50 at 24 h in series [1] was 399 µg/mL (≈ 1700 µM). For the same compound, the LC90 in [2] worked out at 717.7 µg/mL (≈ 3060 µM). For the same compound, in [3], the mortality at 24 h, 10 ug/mL came out at 70%. Further, the mortality at 24 h, 100 ug/mL in [4] was 90%. For the same compound, the mortality at 24 h, 500 ug/mL in series [5] came out at 96.6%. Further, the mortality at 24 h, 1000 ug/mL in series [6] was 100%. For the same compound, in [7], the “diameter of the inhibition zone (DIZ)” value is reported as below 2 mm. Besides, the zone of inhibition at 5000 µg/mL stood at 10 mm in series [8]; 8 mm in series [9]; 12 mm in series [10]; 16 mm in series [11]; 4 mm in series [12]; 11 mm in series [13].

Consider `NS(=O)(=O)C1=NN2CC(=O)N=C2S1`, for which, in [7], the “diameter of the inhibition zone (DIZ)” value is below 2 mm. The zone of inhibition at 5000 µg/mL in series [8] was below 2 mm; in [9], below 2 mm; in series [10], 5 mm; in series [11] it was below 2 mm; in series [12], below 2 mm; in series [13], below 2 mm.

Turning to `NS(=O)(=O)C1=NN2C(=NC(=O)/C2=C\c2ccc(Br)cc2)S1`, the LC50 at 24 h in series [1] stood at 551 µg/mL (≈ 1420 µM). In addition, the LC90 in series [2] is 992.28 µg/mL (≈ 2560 µM). Also, the mortality at 24 h, 10 ug/mL in [3] amounted to 23.3%. The mortality at 24 h, 100 ug/mL in [4] amounted to 40%. For the same compound, the mortality at 24 h, 500 ug/mL in series [5] was found to be 60%. The mortality at 24 h, 1000 ug/mL in [6] is 80%. In series [7], the “diameter of the inhibition zone (DIZ)” value is reported as below 2 mm. Also, the zone of inhibition at 5000 µg/mL in [8] was below 2 mm; in series [9], below 2 mm; in series [10], 8 mm; in series [11], 2 mm; in series [12], 2 mm; in series [13] it was below 2 mm.

Turning to `COc1ccc(/C=C2\C(=O)N=C3SC(S(N)(=O)=O)=NN32)cc1OC`, the LC50 at 24 h in series [1] came out at 425 µg/mL (≈ 1150 µM). Further, the LC90 in [2] came out at 765.3 µg/mL (≈ 2080 µM). Moreover, the mortality at 24 h, 10 ug/mL in series [3] came out at 63.3%. In addition, in series [4], the mortality at 24 h, 100 ug/mL stood at 76.6%. For the same compound, the mortality at 24 h, 500 ug/mL in [5] was determined as 86.6%. Also, the mortality at 24 h, 1000 ug/mL in series [6] is 96.6%. The “diameter of the inhibition zone (DIZ)” value in series [7] is reported as below 2 mm. The zone of inhibition at 5000 µg/mL was 7 mm in [8]; 16 mm in [9]; 4 mm in series [10]; 4 mm in series [11]; 4 mm in series [12]; below 2 mm in series [13].

Consider `CC1(C)S[C@@H]2[C@H](NC(=O)[C@H](N)c3ccccc3)C(=O)N2[C@H]1C(=O)O` [AMPICILLIN], for which the figures for the zone of inhibition at 5000 µg/mL in series [11], in series [12] and in series [13] were 14 mm, 3.5 mm and 23 mm, respectively.

Regarding `OC(Cn1cncn1)(Cn1cncn1)c1ccc(F)cc1F` [FLUCONAZOLE], the values for the zone of inhibition at 5000 µg/mL in [8], in series [9] and in [10] were below 2 mm, below 2 mm and 22 mm, respectively.

With `O=c1[nH]cc(F)c(=O)[nH]1` [FLUOROURACIL], in [1], the median lethal concentration (LC50) at 24 h came out at 409 µg/mL (≈ 3150 µM). Moreover, in series [2], the LC90 amounted to 736.49 µg/mL (≈ 5660 µM). Besides, in series [3], the mortality at 24 h, 10 ug/mL amounted to 63.3%. In series [4], the mortality at 24 h, 100 ug/mL is 83.3%. Besides, in series [5], the mortality at 24 h, 500 ug/mL was found to be 90%. In series [6], the mortality at 24 h, 1000 ug/mL is 100%.

The term LC50 denotes the concentration lethal to half of the exposed cells or organisms. In general, mortality refers to the share of the test organisms that died.
